assay: logP (HCOOH); type: physicochemical; settings: HCOOH (formic acid); Table 2

Compound	chromatographic logP
CCc1ncccc1C(=O)Nc1c(NC2CC2)ncnc1-c1ccc(Cl)cc1Cl [1-126, N-[4-Cyclopropylamino-6-(2,4-dichlorophenyl)pyrimidin-5-yl]-2-ethylnicotinamide]	1.6

same assay, conditions: Table 2

Compound	logP (HCOOH)
Cc1ncccc1C(=O)Nc1c(NC2CC2)ncnc1-c1ccc(F)cc1 [1-1]	0.71
CCc1ncccc1C(=O)Nc1c(NC2CC2)ncnc1-c1ccc(F)c(F)c1 [1-4]	1.34
Cc1ccccc1C(=O)Nc1c(NC2CC2)ncnc1-c1ccc(OC(F)(F)F)cc1 [1-72]	2.35
Cc1ncccc1C(=O)Nc1c(NC(C)C)ncnc1-c1ccc(OC(F)(F)F)cc1 [1-74]	1.55
O=C(Nc1c(NC2CC2)ncnc1-c1ccc(OC(F)(F)F)cc1)c1cccnc1Cl [1-75]	1.99
CC(C)Nc1ncnc(-c2ccc(OC(F)(F)F)cc2)c1NC(=O)c1cccnc1Cl [1-76]	2.05
O=C(Nc1c(NC2CC2)ncnc1-c1ccc(C(F)(F)F)cc1)c1ccccc1Cl [1-80]	2.33
Cc1ccccc1C(=O)Nc1c(NC2CC2)ncnc1-c1ccc(C(F)(F)F)cc1 [1-81]	2.33
O=C(Nc1c(NC2CC2)ncnc1-c1ccc(C(F)(F)F)cc1)c1cccnc1Cl [1-82]	1.94
Cc1ncccc1C(=O)Nc1c(NC2CC2)ncnc1-c1ccc(C(F)(F)F)cc1 [1-83]	1.43
O=C(Nc1c(NC2CC2)ncnc1-c1ccc(C(F)(F)F)cc1)c1cccnc1C(F)(F)F [1-84]	2.19
CC(C)c1ncccc1C(=O)Nc1c(NC2CC2)ncnc1-c1ccc(C(F)(F)F)cc1 [1-85]	2.02
CCc1ccccc1C(=O)Nc1c(NC2CC2)ncnc1-c1ccc(C(F)(F)F)cc1 [1-86]	2.68
Cc1nc(NC2CC2)c(NC(=O)c2cccnc2C)c(-c2ccc(C(F)(F)F)cc2)n1 [1-87]	1.27
Cc1nc(NC2CC2)c(NC(=O)c2ccccc2Cl)c(-c2ccc(C(F)(F)F)cc2)n1 [1-88]	1.93
CC(Nc1ncnc(-c2ccc(OC(F)(F)F)cc2)c1NC(=O)c1cccnc1Cl)C1CC1 (stereo not shown) [1-99]	2.44
O=C(Nc1c(NC(C2CC2)C2CC2)ncnc1-c1ccc(OC(F)(F)F)cc1)c1cccnc1Cl [1-111]	2.65
O=C(Nc1c(NC2CC2)ncnc1-c1ccc(OC(F)(F)F)cc1)c1ccccc1 [1-112]	2.12
O=C(Nc1c(NC2CC2)ncnc1-c1ccc(OC(F)(F)F)cc1)c1ccccc1Cl [1-113]	2.41
CCc1ncccc1C(=O)Nc1c(NC2CC2)ncnc1-c1ccc(SC(F)(F)F)cc1 [1-114]	1.4

Compound	logP (HCOOH)
Cc1ncccc1C(=O)Nc1c(NC2CC2)ncnc1-c1ccc(SC(F)(F)F)cc1 [1-116]	1.81
Cc1ncccc1C(=O)Nc1c(NC2CC2)ncnc1-c1ccc(OS(=O)(=O)C(C)C)cc1 [1-121]	1.15
Cc1ncccc1C(=O)Nc1c(NC2CC2)ncnc1-c1cc(F)c(C(F)(F)F)c(F)c1 [1-122]	1.95
CCc1ncccc1C(=O)Nc1c(NC2CC2)ncnc1-c1ccc(F)cc1 [1-124]	1.03
CCc1ncccc1C(=O)Nc1c(NC2CC2)ncnc1-c1ccccc1 [1-127]	1.01
O=C(Nc1c(NC2CC2)ncnc1-c1ccccc1)c1cccnc1 [1-128]	0.63
O=C(Nc1c(NC2CC2)ncnc1-c1ccc(F)cc1)c1cccnc1Cl [1-129]	1.27
O=C(Nc1c(NC2CC2)ncnc1-c1ccc(Cl)cc1)c1cccnc1Cl [1-130]	1.55
CCc1ncccc1C(=O)Nc1c(NC2CC2)ncnc1-c1ccc(C#N)cc1 [1-133]	1.10
CCc1ncccc1C(=O)Nc1c(NC(C)(C)C)ncnc1-c1ccc(F)cc1 [1-134]	1.53
CCc1ncccc1C(=O)Nc1c(NC(C)(C)C)ncnc1-c1ccc(Cl)cc1 [1-135]	1.86
CCc1ncccc1C(=O)Nc1c(NC(C)(C)C)ncnc1-c1ccc(C#N)cc1 [1-136]	1.81
CCc1ncccc1C(=O)Nc1c(NC(C)(C)C)ncnc1-c1ccc(C(F)(F)F)cc1 [1-137]	2.34
CCc1ncccc1C(=O)Nc1c(NC(C)(C)C)ncnc1-c1ccc(OC(F)(F)F)cc1 [1-138]	2.32
CCc1ncccc1C(=O)Nc1c(NC2CC2)ncnc1-c1ccc(F)cc1Cl [1-139]	0.79
CCc1ncccc1C(=O)Nc1c(NC2CC2)ncnc1-c1ccccc1Cl [1-140]	1.07
CCc1ncccc1C(=O)Nc1c(NC(C)(C)C)ncnc1-c1ccc(Cl)cc1Cl [1-142]	1.89
CCc1ncccc1C(=O)Nc1c(NC(C)C2CC2)ncnc1-c1ccc(F)cc1 (stereo not shown) [1-143]	1.47
CCc1ncccc1C(=O)Nc1c(NC(C)C2CC2)ncnc1-c1ccc(Cl)cc1 (stereo not shown) [1-144]	1.62
CCc1ncccc1C(=O)Nc1c(NC(C)C2CC2)ncnc1-c1ccc(C#N)cc1 (stereo not shown) [1-145]	1.67

Compound	logP (HCOOH)
CCc1ncccc1C(=O)Nc1c(NC(C)C2CC2)ncnc1-c1ccc(OC(F)(F)F)cc1 (stereo not shown) [1-146]	2.18
CCc1ncccc1C(=O)Nc1c(NC(C)C2(Cl)CC2)ncnc1-c1ccc(F)cc1 (stereo not shown) [1-147]	1.95
CCc1ncccc1C(=O)Nc1c(NC(C)C2(Cl)CC2)ncnc1-c1ccc(Cl)cc1Cl (stereo not shown) [1-148]	2.67
CCc1ncccc1C(=O)Nc1c(NC(C)C2(Cl)CC2)ncnc1-c1ccc(Cl)cc1 (stereo not shown) [1-149]	2.26
CCc1ncccc1C(=O)Nc1c(NC(C)C2(Cl)CC2)ncnc1-c1ccc(C#N)cc1 (stereo not shown) [1-150]	2.08
CCc1ncccc1C(=O)Nc1c(NC(C)(C)C2CC2)ncnc1-c1ccc(Cl)cc1 [1-151]	2.22
CCc1ncccc1C(=O)Nc1c(NC(C)C2CC2)ncnc1-c1ccccc1 (stereo not shown) [1-152]	1.32
COc1ncccc1C(=O)Nc1c(NC2CC2)ncnc1-c1ccc(Cl)cc1 [1-154]	1.83
COc1ncccc1C(=O)Nc1c(NC2CC2)ncnc1-c1ccc(C#N)cc1 [1-156]	1.59
COc1ncccc1C(=O)Nc1c(NC2CC2)ncnc1-c1ccc(OC(F)(F)F)cc1 [1-157]	2.21
CCOc1ncccc1C(=O)Nc1c(NC2CC2)ncnc1-c1ccc(Cl)cc1 [1-158]	2.54
CCOc1ncccc1C(=O)Nc1c(NC2CC2)ncnc1-c1ccc(F)cc1 [1-159]	1.84
CCOc1ncccc1C(=O)Nc1c(NC2CC2)ncnc1-c1ccc(C#N)cc1 [1-160]	1.80
CCOc1ncccc1C(=O)Nc1c(NC2CC2)ncnc1-c1ccc(OC(F)(F)F)cc1 [1-161]	2.64
CC(C)Oc1ncccc1C(=O)Nc1c(NC2CC2)ncnc1-c1ccc(F)cc1 [1-163]	2.19
CC(C)Oc1ncccc1C(=O)Nc1c(NC2CC2)ncnc1-c1ccc(C#N)cc1 [1-164]	2.27
CC(C)Oc1ncccc1C(=O)Nc1c(NC2CC2)ncnc1-c1ccc(OC(F)(F)F)cc1 [1-165]	2.32
O=C(Nc1c(NC2CC2)ncnc1-c1ccc(Cl)cc1)c1cccnc1OCC(F)(F)F [1-166]	2.48
O=C(Nc1c(NC2CC2)ncnc1-c1ccc(F)cc1)c1cccnc1OCC(F)(F)F [1-167]	2.12
N#Cc1ccc(-c2ncnc(NC3CC3)c2NC(=O)c2cccnc2OCC(F)(F)F)cc1 [1-168]	2.11

Reference: patent publication US20120071496A1, “Aminopyrimidinamides As Pest Control Agents” (Bayer CropScience AG, priority 2009, published 2012)
